ChEMBL document CHEMBL1157236, “A reassignment of (-)-mycothiazole and the isolation of a related diol” (2006)

Columns and labels:
[1] = system: HOP-92; assay: Growth inhibition of human HOP92 cells; assay type: functional
[2] = system: EKVX; assay: Growth inhibition of human EKVX cells; assay type: functional
[3] = system: HCT-116; assay: Growth inhibition of human HCT116 cells; assay type: functional
[4] = system: SF-295; assay: Growth inhibition of human SF295 cells; assay type: functional
[5] = system: L1210; assay: Selectivity for mouse C38 cells over mouse L1210 cells; assay type: functional
[6] = system: PC-3; assay: Growth inhibition of human PC3 cells; assay type: functional; details: PC-3, read-out: pGI50 (converted)
[7] = system: HOP-62; assay: Growth inhibition of human HOP62 cells; assay type: functional; details: HOP-62, read-out: pGI50 (converted)
[8] = system: NCI-H460; assay: Growth inhibition of human NCI-H460 cells; assay type: functional
[9] = system: NCI-H522; assay: Growth inhibition of human NCI-H522 cells; assay type: functional
[10] = system: Hs-578T; assay: Growth inhibition of human HS578T cells; assay type: functional; details: read-out: pGI50 (converted)
[11] = system: HCC 2998; assay: Growth inhibition of human HCC2998 cells; assay type: functional; details: HCC 2998, read-out: pGI50 (converted)
[12] = Growth inhibition of human […] cells; assay type: functional
[13] = Growth inhibition of human LXFL529 cells; assay type: functional; details: LXFL 529
[14] = system: A498; assay: Growth inhibition of human A498 cells; assay type: functional
[15] = system: MCF7; assay: Growth inhibition of human MCF7 cells; assay type: functional; details: MCF7, read-out: pGI50 (converted)
[16] = system: DLD-1; assay: Growth inhibition of human DLD1 cells; assay type: functional
[17] = system: 786-0; assay: Growth inhibition of human 786-0 cells; assay type: functional; details: 786-0, read-out: pGI50 (converted)
[18] = system: DU-145; assay: Growth inhibition of human DU145 cells; assay type: functional; details: DU-145, read-out: pGI50 (converted)
[19] = system: CAKI-1; assay: Growth inhibition of human CAKI1 cells; assay type: functional
[20] = system: CCRF-CEM; assay: Growth inhibition of human CCRF-CEM cells; assay type: functional
[21] = system: SF-539; assay: Growth inhibition of human SF539 cells; assay type: functional; details: SF-539, read-out: pGI50 (converted)
[22] = system: XF498; assay: Growth inhibition of human XF498 cells; assay type: functional
[23] = Growth inhibition of human HL60(TB) cells; assay type: functional, HL-60(TB); details: HL-60
[24] = system: KM-20L2; assay: Growth inhibition of human KM20L2 cells; assay type: functional
[25] = system: IGROV-1; assay: Growth inhibition of human IGROV1 cells; assay type: functional
[26] = system: NCI-H23; assay: Growth inhibition of human NCI-H23 cells; assay type: functional
[27] = system: MDA-MB-435; assay: Growth inhibition of human MDA-MB-435 cells; assay type: functional
[28] = system: COLO 205; assay: Growth inhibition of human COLO205 cells; assay type: functional
[29] = system: NCI/ADR-RES; assay: Growth inhibition of human NCI/ADR-RES cells; assay type: functional
[30] = system: DMS-114; assay: Growth inhibition of human DMS114 cells; assay type: functional
[31] = system: Malme-3M; assay: Growth inhibition of human MALME3M cells; assay type: functional; details: read-out: pGI50 (converted)
[32] = system: UO-31; assay: Growth inhibition of human UO31 cells; assay type: functional
[33] = system: UACC-62; assay: Growth inhibition of human UACC62 cells; assay type: functional
[34] = Growth inhibition of human RXF631 cells; assay type: functional; details: RXF 631, read-out: pGI50 (converted)
[35] = system: SNB-75; assay: Growth inhibition of human SNB75 cells; assay type: functional
[36] = system: M14; assay: Growth inhibition of human M14 cells; assay type: functional
[37] = Growth inhibition of human OVACR5 cells; assay type: functional; details: OVACR5, read-out: pGI50 (converted)
[38] = system: M19-MEL; assay: Growth inhibition of human M19-MEL cells; assay type: functional
[39] = system: BT-549; assay: Growth inhibition of human BT549 cells; assay type: functional
[40] = system: SK-MEL-5; assay: Growth inhibition of human SK-MEL-5 cells; assay type: functional
[41] = system: K562; assay: Growth inhibition of human K562 cells; assay type: functional
[42] = system: NCI-H226; assay: Growth inhibition of human NCI-H226 cells; assay type: functional; details: NCI-H226, read-out: pGI50 (converted)
[43] = system: KM12; assay: Growth inhibition of human KM12 cells; assay type: functional
[44] = system: TK-10; assay: Growth inhibition of human TK10 cells; assay type: functional; details: TK-10, read-out: pGI50 (converted)
[45] = system: SK-OV-3; assay: Growth inhibition of human SK-OV-3 cells; assay type: functional
[46] = system: RXF 393; assay: Growth inhibition of human […] cells; assay type: functional
[47] = Growth inhibition of human OVACR3 cells; assay type: functional
[48] = system: SF-268; assay: Growth inhibition of human SF268 cells; assay type: functional
[49] = system: DMS-273; assay: Growth inhibition of human DMS273 cells; assay type: functional
[50] = system: SN12C; assay: Growth inhibition of human SN12C cells; assay type: functional; details: read-out: pGI50 (converted)
[51] = system: SNB-19; assay: Growth inhibition of human SNB19 cells; assay type: functional; details: SNB-19, read-out: pGI50 (converted)
[52] = system: ACHN; assay: Growth inhibition of human ACHN cells; assay type: functional
[53] = system: T47D; assay: Growth inhibition of human T47D cells; assay type: functional; details: read-out: pGI50 (converted)
[54] = Growth inhibition of human OVACR4 cells; assay type: functional
[55] = system: HT-29; assay: Growth inhibition of human HT29 cells; assay type: functional
[56] = system: U-251; assay: Growth inhibition of human U251 cells; assay type: functional
[57] = system: LOX IMVI; assay: Growth inhibition of human LOX IMVI cells; assay type: functional
[58] = system: SK-MEL-28; assay: Growth inhibition of human SK-MEL-28 cells; assay type: functional
[59] = system: SW-620; assay: Growth inhibition of human SW620 cells; assay type: functional
[60] = Growth inhibition of human OVACR8 cells; assay type: functional
[61] = system: SR; assay: Growth inhibition of human SR cells; assay type: functional
[62] = system: MDA-N; assay: Growth inhibition of human MDA-N cells; assay type: functional
[63] = system: HCT-15; assay: Growth inhibition of human HCT15 cells; assay type: functional
[64] = system: NCI-H322M; assay: Growth inhibition of human NCI-H322M cells; assay type: functional
[65] = system: SK-MEL-2; assay: Growth inhibition of human SK-MEL-2 cells; assay type: functional; details: SK-MEL-2, read-out: pGI50 (converted)
[66] = system: MOLT-4; assay: Growth inhibition of human MOLT4 cells; assay type: functional
[67] = system: A549; assay: Growth inhibition of human A549 cells; assay type: functional
[68] = system: UACC-257; assay: Growth inhibition of human UACC257 cells; assay type: functional

C=CC/C=C\Cc1csc(C(C)(C)[C@H](O)C/C=C\C(=C)CCNC(=O)OC)n1 [MYCOTHIAZOLE]
1.58 µM: GI50 [68]
31.6 µM: GI50 [8] | GI50 [12] | GI50 [20] | GI50 [25]
20 µM: GI50 [1] | GI50 [9] | GI50 [13]
0.251 µM: GI50 [26]
3: Selectivity Index [5]
1.26 µM: GI50 [4] | GI50 [40]
79.4 µM: GI50 [16] | GI50 [29] | GI50 [32] | GI50 [45] | GI50 [48] | GI50 [56] | GI50 [58] | GI50 [60]
50.1 µM: GI50 [22] | GI50 [24] | GI50 [27] | GI50 [52] | GI50 [55] | GI50 [62]
0.501 µM: GI50 [61]
0.631 µM: GI50 [3]
39.8 µM: GI50 [33] | GI50 [35] | GI50 [36] | GI50 [57] | GI50 [63] | GI50 [66] | GI50 [67]
0.794 µM: GI50 [41]
25.1 µM: GI50 [2] | GI50 [38] | GI50 [47] | GI50 [59]
63.1 µM: GI50 [14] | GI50 [19] | GI50 [28] | GI50 [43] | GI50 [46] | GI50 [54]
15.8 µM: GI50 [64]
0.0126 µM: GI50 [30]
3.16 µM: GI50 [39] | GI50 [49]
> 100 µM: GI50 [6] | GI50 [7] | GI50 [10] | GI50 [11] | GI50 [15] | GI50 [17] | GI50 [18] | GI50 [21] | GI50 [31] | GI50 [34] | GI50 [37] | GI50 [42] | GI50 [44] | GI50 [50] | GI50 [51] | GI50 [53] | GI50 [65]
10 µM: GI50 [23]
